Measurements as given in US9522924B1, “Pyridone derivatives as acid secretion inhibitors and process for preparation thereof” (Emcure Pharmaceuticals Limited, priority 2012, dated 2016).
Read-outs that look alike come from different tables or passages of the source.

Experiments:
H^+/K^+ ATPase [1] = biological target: T1, H^+/K^+ ATPase (Sus scrofa, UniProt P19156); assay: H+K+-ATPase assay (p-NPP to p-NP), enzyme from porcine (pig) fundus; assay type: biochemical; conditions: for IC50: enzyme from porcine fundus, pH 6.0, 30 min pre-incubation at 37° C.
T1 construct: using an enzyme isolated from the rabbit or porcine (pig) fundus; from tissue; host or cells: porcine (pig) gastric fundus
Method: (§1) H+K+-ATPase Assay Protocol Description:
(§2) Evaluation of the effects of compounds on the activity of the H^+/K^+ ATPase activity was quantified by measuring the formation of para-nitrophenol (p-NP) from para-nitrophenol phosphate (p-NPP) using an enzyme isolated from the rabbit or porcine (pig) fundus.
(§3) The test compound, reference compound or water (control) are pre-incubated for 30 min at 37° C. with the enzyme (5 μg) in a buffer containing 40 mM Hepes/Tris (pH 6.0), 20 mM KCl, 5 mM MgCl2 and 1 mM ouabain. The enzymatic reaction was then initiated by the addition of 2 mM p-NPP.
(§4) The absorbance was measured immediately at k=405 nm using a microplate reader (EnVision, Perkin Elmer). This measurement at t=0 was also used to verify any compound interference with the spectrophotometric detection at the selected wavelength.
(§5) Thereafter, the mixture was incubated for 15 min at 37° C., after which time the reaction is stopped by addition of 0.5 M NaOH and a second measurement is made at the same wavelength (t=15). The enzyme activity is determined by subtracting the signal measured at t=0 from that measured at t=15. The results are expressed as a percent inhibition of the control enzyme activity.
(§6) The standard inhibitory reference compound is omeprazole,
(§7) Bibliographic reference: Dantzig, H., Minor, P. L. Garrigus, J. L., Fukuda, D. S. and Mynderse, J. S., Studies of the mechanism of action of A80915A, a semi-naphtolquinone natural product, as an inhibitor of gastric (H+/K+)-ATPase, Biochem. Pharmacol. (1991), 42: 2019.
(§8) Assay volume and format: 250 μl in 96-well plate
(§9) Compound addition: [100×] solution in solvent, then [10×] solution in water Maximum tolerable DMSO concentration: 1%

[2] = tested on: Indomethacin-induced gastric ulceration; assay: Indomethacin-induced gastric ulceration model in rats; assay type: in vivo, female albino Wistar rats; conditions: oral, 1 hour before indomethacin 30 mg/kg p.o.; for ED (effect similar to omeprazole 10 mg/kg): Rattus norvegicus, read-out: Indomethacin-induced ulcer model (dose @ which effect is similar to 10mpk of omeprazole)
Method: The anti-ulcer efficacy of various test compounds (I-A-1 to I-A-11, I-B-1 to I-B-3) was assessed in Indomethacin—induced gastric ulceration model in female albino Wistar rats (Bhattacharya S., Banerjee D., Bauri A. K., Chattopadhyay S., Bandyopadhyay S. K. Healing property of the piper betelphenol, allylpyrocatechol against indomethacin-induced stomach ulceration and mechanism of action. World J Gastroenterol., 13(27): 3705-13, 2007; Lee A. Animal models of gastroduodenal ulcer disease. Bailliere's Best Pract. Res. Clinic Gastroenterol., 14(1): 75-96, 2000). The test compounds were administered orally at various doses (0.2, 0.4, 0.8 and 1.6 mg/kg) in comparison to Omeprazole (10 mg/kg) as standard comparator.
Experiments were conducted in overnight fasted healthy female albino Wistar rats maintained at controlled environmental conditions of temperature and humidity with water given ad libitum. Non-steroidal anti-inflammatory drug (NSAID), Indomethacin (30 mg/kg, p.o.) was used to induce gastric ulcer (treatment groups) with a comparative group without indomethacin treatment (negative group). Indomethacin was administered to treatment groups 1 hour after oral treatment with Vehicle (1% CMC), various doses of test compounds (EPPIs) and Omeprazole (10 mg/kg). After 4-6 hours after indomethacin administration, the animals were sacrificed by cervical dislocation and their stomach was dissected out. Various parameters like macroscopic ulcer index, gastric mucus content and gastric acid pH measurements were undertaken. The rat stomachs were cut opened along the greater curvature for macroscopic determination of ulcer index.

H^+/K^+ ATPase [3] = biological target: T2, H^+/K^+ ATPase (Oryctolagus cuniculus, UniProt P27112); assay: H+K+-ATPase assay (p-NPP to p-NP), enzyme from rabbit fundus; assay type: biochemical; conditions: pH 6.0, 30 min pre-incubation at 37° C.
T2 construct: using an enzyme isolated from the rabbit or porcine (pig) fundus; from tissue; host or cells: rabbit gastric fundus
Method: as §1, §2, §3, §4, §5, §6, §7, §8, §9

H^+/K^+ ATPase [4] = biological target: T2, H^+/K^+ ATPase; conditions: literature value (Scott and Sundell, Eur. J Pharmacol 1985); read-out: IC50 (Rabbit); cited from earlier work
H^+/K^+ ATPase [5] = biological target: T1, H^+/K^+ ATPase; conditions: literature value (Keeling et al., Biochem Pharmacol 1985); read-out: IC50 (Pig-Porcine); cited from earlier work

T2 sequence (P27112 2-1035 limits assumed): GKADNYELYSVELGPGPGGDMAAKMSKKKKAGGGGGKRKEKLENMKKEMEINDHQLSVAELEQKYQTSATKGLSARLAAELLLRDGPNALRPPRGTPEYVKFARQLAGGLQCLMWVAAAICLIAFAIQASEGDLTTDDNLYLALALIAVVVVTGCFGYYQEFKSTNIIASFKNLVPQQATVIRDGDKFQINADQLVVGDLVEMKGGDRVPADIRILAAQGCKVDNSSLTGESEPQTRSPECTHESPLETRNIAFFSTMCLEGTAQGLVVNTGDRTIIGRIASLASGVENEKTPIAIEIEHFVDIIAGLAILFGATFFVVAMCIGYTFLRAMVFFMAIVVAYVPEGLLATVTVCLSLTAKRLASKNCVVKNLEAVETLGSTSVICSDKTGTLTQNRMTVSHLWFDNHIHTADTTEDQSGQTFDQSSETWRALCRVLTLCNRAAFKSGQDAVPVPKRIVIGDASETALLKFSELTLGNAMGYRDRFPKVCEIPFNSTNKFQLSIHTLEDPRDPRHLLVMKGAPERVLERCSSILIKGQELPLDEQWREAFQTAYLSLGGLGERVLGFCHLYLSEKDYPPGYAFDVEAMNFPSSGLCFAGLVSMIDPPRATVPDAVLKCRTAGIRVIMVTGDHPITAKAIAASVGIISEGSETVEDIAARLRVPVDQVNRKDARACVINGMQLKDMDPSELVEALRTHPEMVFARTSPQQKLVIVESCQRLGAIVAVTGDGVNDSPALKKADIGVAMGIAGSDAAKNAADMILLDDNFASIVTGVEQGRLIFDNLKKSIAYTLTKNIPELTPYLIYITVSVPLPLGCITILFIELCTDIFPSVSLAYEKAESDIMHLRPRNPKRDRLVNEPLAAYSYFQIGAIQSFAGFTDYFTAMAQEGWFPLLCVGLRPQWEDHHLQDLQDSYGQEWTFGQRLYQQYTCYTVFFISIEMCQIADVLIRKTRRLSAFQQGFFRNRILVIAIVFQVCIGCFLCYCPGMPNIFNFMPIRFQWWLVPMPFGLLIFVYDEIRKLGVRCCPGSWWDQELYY
T2 sequence (P18597 whole entry partner): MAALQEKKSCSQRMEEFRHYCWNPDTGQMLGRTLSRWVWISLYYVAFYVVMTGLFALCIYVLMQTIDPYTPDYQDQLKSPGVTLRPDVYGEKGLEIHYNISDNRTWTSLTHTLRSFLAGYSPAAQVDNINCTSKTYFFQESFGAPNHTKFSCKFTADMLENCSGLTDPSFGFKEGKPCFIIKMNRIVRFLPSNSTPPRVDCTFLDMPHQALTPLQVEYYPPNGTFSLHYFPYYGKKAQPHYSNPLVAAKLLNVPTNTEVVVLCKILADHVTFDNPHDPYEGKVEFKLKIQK
T1 sequence (P19156 2-1034 limits assumed): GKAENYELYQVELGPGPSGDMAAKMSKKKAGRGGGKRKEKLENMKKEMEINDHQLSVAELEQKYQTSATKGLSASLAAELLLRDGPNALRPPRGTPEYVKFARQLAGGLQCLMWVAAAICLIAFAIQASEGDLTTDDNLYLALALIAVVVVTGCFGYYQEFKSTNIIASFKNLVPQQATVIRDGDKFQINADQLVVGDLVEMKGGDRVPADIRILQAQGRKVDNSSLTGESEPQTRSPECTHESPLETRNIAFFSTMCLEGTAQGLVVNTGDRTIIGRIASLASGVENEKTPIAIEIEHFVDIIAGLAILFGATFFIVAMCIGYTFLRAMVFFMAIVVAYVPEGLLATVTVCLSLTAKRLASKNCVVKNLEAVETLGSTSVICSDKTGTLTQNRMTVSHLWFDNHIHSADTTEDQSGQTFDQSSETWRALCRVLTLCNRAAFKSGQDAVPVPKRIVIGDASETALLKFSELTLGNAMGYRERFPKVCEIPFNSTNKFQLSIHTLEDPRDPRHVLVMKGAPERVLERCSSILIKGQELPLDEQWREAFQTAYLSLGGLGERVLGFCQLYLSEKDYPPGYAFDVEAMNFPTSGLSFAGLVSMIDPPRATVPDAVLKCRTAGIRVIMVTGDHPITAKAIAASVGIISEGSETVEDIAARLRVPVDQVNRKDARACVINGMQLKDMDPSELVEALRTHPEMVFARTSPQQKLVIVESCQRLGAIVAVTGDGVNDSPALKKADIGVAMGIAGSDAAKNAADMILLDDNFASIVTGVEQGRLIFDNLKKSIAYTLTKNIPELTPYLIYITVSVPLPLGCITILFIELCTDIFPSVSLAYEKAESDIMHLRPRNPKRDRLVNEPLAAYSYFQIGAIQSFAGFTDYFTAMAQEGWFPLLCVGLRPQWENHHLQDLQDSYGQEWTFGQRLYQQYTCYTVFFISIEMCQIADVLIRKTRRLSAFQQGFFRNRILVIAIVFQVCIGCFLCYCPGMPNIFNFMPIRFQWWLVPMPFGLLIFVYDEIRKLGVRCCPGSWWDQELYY
T1 sequence (P18434 whole entry partner): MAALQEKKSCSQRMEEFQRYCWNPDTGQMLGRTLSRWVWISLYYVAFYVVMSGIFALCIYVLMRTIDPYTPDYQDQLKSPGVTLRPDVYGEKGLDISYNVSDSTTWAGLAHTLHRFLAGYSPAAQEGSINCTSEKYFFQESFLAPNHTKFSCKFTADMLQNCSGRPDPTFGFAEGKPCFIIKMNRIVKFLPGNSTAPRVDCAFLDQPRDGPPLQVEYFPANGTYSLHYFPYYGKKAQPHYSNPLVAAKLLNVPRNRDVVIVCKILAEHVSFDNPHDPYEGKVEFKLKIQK

| SMILES | IC50 (H^+/K^+ ATPase [1]) [nM] | ED (effect similar to omeprazole 10 mg/kg) [2] [mg/kg] | IC50 (H^+/K^+ ATPase [3]) [nM] | percent inhibition of the control enzyme activity (printed in IC50 (Pig-Porcine) column) (H^+/K^+ ATPase [1]; @ 3-30 uM) [% @ 3-30 uM] | Indomethacin-induced ulcer model (dose @ which effect is similar to 10mpk of omeprazole) [2] [mg/kg] | IC50 (H^+/K^+ ATPase [4]) [nM] | IC50 (H^+/K^+ ATPase [5]) [nM] |
| --- | --- | --- | --- | --- | --- | --- | --- |
| COc1ccc2[nH]c(-n3ccc(=O)c(OC)c3CSSCc3c(OC)c(=O)ccn3-c3nc4cc(OC)ccc4[nH]3)nc2c1 [I-A-7, 2-((2-((1,4-dihydro-3-methoxy-1-(5-methoxy-1H-benzo[d]imidazol-2-yl)-4-oxopyridin-2-yl)methyl)disulfinyl)methyl)-3-methoxy-1-(5-methoxy-1H-benzo[d]imidazol-2-yl)pyridin-4(1H)-one] | 4700 | 1.6 | 1200 | – | – | – | – |
| COc1ccc2[nH]c(-n3ccc(=O)c(OC)c3CSSCc3c(OC)c(=O)ccn3-c3nc4nc(OC)ccc4[nH]3)nc2n1 [I-B-2] | 8400 | 1.6 | 2000 | – | – | – | – |
| COc1c(CSSCc2c(OC)c(=O)ccn2-c2nc3ccccc3[nH]2)n(-c2nc3ccccc3[nH]2)ccc1=O [I-A-3] | 2000 | 1.6 | 1100 | – | – | – | – |
| Cc1cn(-c2nc3cc(F)ccc3[nH]2)c(CSSCc2c(C)c(=O)c(C)cn2-c2nc3cc(F)ccc3[nH]2)c(C)c1=O [I-A-8] | 1300 | 1.6 | 1200 | – | – | – | – |
| COc1c(CSSCc2c(OC)c(=O)ccn2-c2nc3cc(C(F)(F)F)ccc3[nH]2)n(-c2nc3cc(C(F)(F)F)ccc3[nH]2)ccc1=O [I-A-9] | 1700 | 1.6 | 1100 | – | – | – | – |
| COc1c(CSSCc2c(OC)c(=O)ccn2-c2nc3cc(C)ccc3[nH]2)n(-c2nc3cc(C)ccc3[nH]2)ccc1=O [I-A-5] | 2300 | 1.6 | 1300 | – | – | – | – |
| COc1ccc2[nH]c(-n3cc(C)c(=O)c(C)c3C[S+]([O-])[S+]([O-])Cc3c(C)c(=O)c(C)cn3-c3nc4nc(OC)ccc4[nH]3)nc2n1 (centres unmarked) [I-B-3, 2-((2-((1,4-dihydro-1-(5-methoxy-1H-imidazo[4,5-b]pyridin-2-yl)-3,5-dimethyl-4-oxopyridin-2-yl)methyl)disulfinyl)methyl)-1-(5-methoxy-1H-imidazo[4,5-b]pyridin-2-yl)-3,5-dimethylpyridin-4(1H)-one] | – | – | – | 45 | 1.6 | – | – |
| COc1ccc2[nH]c(-n3cc(C)c(=O)c(C)c3CSSCc3c(C)c(=O)c(C)cn3-c3nc4cc(OC)ccc4[nH]3)nc2c1 [I-A-6] | 4100 | – | 1300 | – | – | – | – |
| Cc1ccc2[nH]c(-n3cc(C)c(=O)c(C)c3CSSCc3c(C)c(=O)c(C)cn3-c3nc4cc(C)ccc4[nH]3)nc2c1 [I-A-4] | 2900 | – | 1600 | – | – | – | – |
| COc1c(CSSCc2c(OC)c(=O)ccn2-c2nc3cc(OC(F)F)ccc3[nH]2)n(-c2nc3cc(OC(F)F)ccc3[nH]2)ccc1=O [I-A-11] | 3300 | 1.6 | 1500 | – | – | – | – |
| O=c1ccn(-c2nc3ccccc3[nH]2)c(C[S+]([O-])[S+]([O-])Cc2cc(=O)ccn2-c2nc3ccccc3[nH]2)c1 (centres unmarked) [I-A-1, 2-((2-((1-(1H-benzo[d]imidazol-2-yl)-1,4-dihydro-4-oxopyridin-2-yl)methyl)disulfinyl)methyl)-1-(1H-benzo[d]imidazol-2-yl)pyridin-4(1H)-one] | 1800 | – | 1000 | – | 1.6 | – | – |
| COc1ccc2[nH]c([S+]([O-])Cc3ncc(C)c(OC)c3C)nc2c1 (centres unmarked) [Omeprazole, omeprazole] | – | – | – | – | – | 4000 | 3900 |
| Cc1cn(-c2nc3ccccc3[nH]2)c(CSSCc2c(C)c(=O)c(C)cn2-c2nc3ccccc3[nH]2)c(C)c1=O [I-A-2] | 1300 | 1.6 | 1000 | – | – | – | – |
| Cc1cn(-c2nc3ncccc3[nH]2)c(CSSCc2c(C)c(=O)c(C)cn2-c2nc3ncccc3[nH]2)c(C)c1=O [I-B-1, 2-((2-((1,4-dihydro-1-(1H-imidazo[4,5-b]pyridin-2-yl)-3,5-dimethyl-4-oxopyridin-2-yl)methyl)disulfinyl)methyl)-1-(1H-imidazo[4,5-b]pyridin-2-yl)-3,5-dimethylpyridin-4(1H)-one] | 14000 | 1.6 | 2800 | – | – | – | – |
